Target: T1, human 11beta-HSD1 (Homo sapiens, UniProt P28845)
T1 construct: expressed in transfected cells; host or cells: HEK293 cells (ATCC CRL-1573), transient transfection with pcDNA3 construct; microsomal fraction used
Experiment: Microsome assay (cortisone to cortisol conversion, ELISA detection)
Format: biochemical
Conditions: microsomes from HEK293 cells transiently expressing human 11beta-HSD1; cortisone 50-200 nM, NADPH 1 mM, 60 min at 37° C.; read-out: h 11-beta-HSD 1 IC50
Experimental: The cDNA encoding the human 11beta-HSD1 protein was cloned into the expression vector pcDNA3 ([…]). This construct (for details see Alex Odermatt et al.; J Biol Chem., 1999, Vol. 274, Issue 40, 28762-28770) was used to transiently express the protein in HEK293 cells (ATCC number: CRL-1573, described in Graham, F. L., Smiley, J., Russell, W. C., Nairn, R.; (1977)) using lipofectamine. 48h after transfection cells were washed twice with ice-cold PBS (Phosphate buffered Saline). To 1 volume of cell suspension in PBS 2 volumes of ice-cold lysis buffer (50 mM Tris; pH 7.5; 1 mM EDTA; 100 mM NaCl) were added. The cells were lysed by Potter-homogenization (20 strokes). The resulting homogenate was sonicated with a tip sonicator (10% output; 2×30 sec.) and cleared by a low speed centrifugation (10 min×9000 g; 4° C.). The microsomal fraction was collected by a high speed centrifugation (60 min×110,000 g). […]
Microsomes isolated from HEK293 cells transiently expressing human 11beta-HSD1 (for details see above) were incubated in assay buffer (100 mM NaCl; 1 mM EDTA; 1 mM EGTA; 1 mM MgCl; 250 mM Sucrose; 20 mM Tris pH 7.4; Cortisone 50-200 nM and NADPH 1 mM) together with different concentrations of test substances. […] The amount of Cortisol produced in this assay was determined using a commercially available, ELISA-based Cortisol-detection kit (Distributed by Assay Design, Inc.). […]

T1 sequence (P28845 whole entry): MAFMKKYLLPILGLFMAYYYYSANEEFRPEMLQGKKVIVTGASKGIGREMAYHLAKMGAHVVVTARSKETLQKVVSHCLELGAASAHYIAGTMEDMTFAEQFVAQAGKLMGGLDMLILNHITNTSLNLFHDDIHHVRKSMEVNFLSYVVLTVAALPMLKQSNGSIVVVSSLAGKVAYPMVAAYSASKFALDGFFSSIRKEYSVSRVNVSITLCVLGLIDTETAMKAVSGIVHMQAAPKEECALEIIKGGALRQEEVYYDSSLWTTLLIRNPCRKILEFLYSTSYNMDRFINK

IC50 [µM] | Structure (SMILES)
0.014 | CC(C)(C)Cc1cc2c(nn1)[C@@]1(C)CC[C@@H]2C1(C)C [Example 3, (1S,8R)-5-(2,2-Dimethyl-propyl)-1,11,11-trimethyl-3,4-diaza-tricyclo[6.2.1.0^2,7]undeca-2,4,6-triene]
0.006 | CC(C)(C)Cc1cc2c(nn1)CCCCCC2 [Example 1, 3-(2,2-Dimethyl-propyl)-5,6,7,8,9,10-hexahydro-cycloocta[c]pyridazine]

From patent publication US7547697B2, “Alkyl-pyridazine derivatives as 11b-HSD1 inhibitors” (Hoffmann-La Roche Inc., priority 2006, dated 2009)
